The record followed here is publication PMC10700673, “A Smart Intracellular Self‐Assembling Bioorthogonal Raman Active Nanoprobe for Targeted Tumor Imaging” (Advanced Science, 2023).

A short description of series [1]: in vivo toxicity and biocompatibility. Also noted: species or system healthy female rag2 mice. To be noted: 7 days after IV 100 µL, 0.0125 mmol kg-1, n = 3. The source says: The in vivo toxicity and biocompatibility of nanoSABER were investigated following IV injection of nanoSABER in mice (Figure 7a). […] In addition, we examined various common indicators related to renal function (Figure 7c), liver function (Figure 7d), and bone marrow function (Figure 7e). […] These findings further confirm the biocompatibility and safety of the nanoSABER for in vivo targeted tumor imaging.
Figure 7 a) Schematic illustration of in vivo toxicity and biocompatibility assessment 7 days after IV injection of nanoSABER. b) Histology of major organs excised and stained with H&E for PBS (control) or nanoSABER injection. c) Kidney function test for blood plasma and urine. d) Liver function test for the enzymes aspartate transaminase (AST), alkaline phosphatase (ALP), and alanine transaminase (ALT) in blood plasma. e) Bone marrow function test for red blood cells (RBCs), white blood cells (WBCs), and platelets in blood plasma. All data are presented as mean ± standard deviation, n = 3. p‐Values of <0.001 (***), 0.001 to 0.01 (**), and 0.01 to 0.05 (*) were considered significant.
All animal experiments were carried out under an approved IACUC protocol. The biocompatibility of nanoSABER was evaluated in vivo, using healthy female rag2 mice that were divided into two groups (n = 3 each). […]

The next series has as its system LNCaP tumors. Briefly: in vivo Raman imaging of tumor-bearing mice. To be noted: 2 h after IV injection of 0.0125 mmol kg-1, compared with DU145. Also noted: species or system NU/J nude mice. On the procedure: To further evaluate the ability of the nanoSABER probe to delineate legumain‐overexpressing tumors, in vivo Raman imaging of tumors of mice inoculated with DU145 and LNCaP cells was performed (Figure 6a). The Raman images were captured 2 h after the intravenous (IV) injection of the nanoSABER probe. […] Our results validated that nanoSABER experienced tumor legumain‐triggered self‐assembly into alkyne‐dimer nanoparticles that effectively generated distinct and higher Raman signals in DU145 tumors. To validate our findings, we included a control group that received a PBS injection instead of the nanoSABER probes. In both types of tumors, no Raman signal was detected in the control group (Figure S15, Supporting Information), further confirming that the observed signals in the experimental groups were indeed attributable to the legumain‐instructed self‐assembly of alkyne‐dimer nanoparticles.
All animal experiments were approved by an institutional animal care and use committee (IACUC) protocol. NU/J nude mice (male, 6–8 weeks old) were subcutaneously injected with 1 × 10^6 DU145 or LNCaP cells in the right flank. Once the tumor reached a volume of 100–200 mm^3, mice were IV injected with 0.0125 mmol kg^–1 nanoSABER or PBS (control group). After 2 h, Raman imaging was performed to determine the amount of intracellular self‐assembly within the tumors.

The nature of series [2]: self-assembly into nanoparticles, TEM and DLS. To be noted: probe solution without legumain enzyme. It is filed as physicochemical. On the procedure: To accurately evaluate the efficiency of the R6‐AAN‐alkyne‐nitrile nanoprobe, time‐dependent Raman measurements were performed (Figure 2g), where the ratio of alkyne/nitrile peak intensity was used as an indicator of the reaction progress. We found as the reaction progressed the alkyne/nitrile peak intensity increased from 0.22±0.01 to 4.4±0.12 and plateaued at a final value of 4.6±0.12 indicating almost complete conversion of nanoSABER to alkyne‐dimer within 3 h. […] To further get insight into the structural arrangements of the self‐assembled dimers, transmission electron microscopy (TEM) was performed. […]
All materials were sourced from Sigma, Chem Impex, or Thermo Fisher and used as received, with purification performed only when explicitly indicated. […] The mass of synthesized peptides was determined using Bruker AutoFLex III Maldi‐TOF or Voyager DE‐STR MALDI‐TOF mass spectrometers. ^1H NMR spectra were obtained on a 400 MHz Bruker Avance at 27 °C in dimethylsulfoxide (DMSO)‐d6. Ultraviolet–visible (UV–Vis) absorption spectra were recorded with a Perkin Elmer Lambda 950 UV–Vis spectrophotometer. […] High‐resolution fluorescence imaging was performed using a Leica SP8 confocal microscope equipped with a 63× oil‐immersion objective. The size distribution of nanoparticles was determined using dynamic light scattering (DLS) (Zetasizer Nano, Malvern Instruments) at room temperature (RT). […]

On to “Ac‐Arg‐Arg‐Arg‐Arg‐Arg‐Arg‐Ala‐Ala‐Asn‐Cys(StBu)‐Pra‐Lys‐CBT [nanoSABER]”, for which the “renal, liver and bone marrow function parameters” value in series [1] (compared with PBS group) was “fell within a normal reference range”. The “H&E histology of major organs” value in series [1] (heart, liver, lung, kidney, spleen) is on record as “no signs of histopathological damage or tissue inflammation”. Moreover, the “Raman signal intensity within the tumor” value in the series with LNCaP tumors is reported as “significantly weaker”. In series [2], the “nanoparticles in TEM before addition of legumain” value is listed as “did not show any detectable nanoparticles”.
